Our source for the Resistance level values is patent US20240188569A1, “NEW YEAST STRAIN AND ITS USES FOR THE CONTROL OF PHYTOPATHOGENS” (AGROVENTURES LLC, priority 2021, published 2024).

Each structure is given as a SMILES string.

The test system of the assay is PT22AV. As to the kind of experiment: Minimum inhibitory concentration of fungicides in NYDA agar. The conditions noted are these: resistance level of PT22AV to the fungicide.

Turning to `N#Cc1c[nH]cc1-c1cccc2c1OC(F)(F)O2` [Fludioxonil], the Resistance level result is reported as “Resistant”.
